Assay results: patent publication US20260125375A1 (Pfizer Inc., priority 2022, published 2026)

How the values were obtained:
[1] = molecular target: T1, WT CBL-B (36-427) (Homo sapiens, UniProt Q13191); assay: Surface Plasmon Resonance (SPR) assay, binding affinity and kinetics, CBL-B; details: SPR at 10° C., biotinylated WT CBL-B (36-427) on streptavidin chip; geometric mean; read-out: CBL-B SPR Kd (nM) GMean
T1 construct: N-terminal biotinylated WT CBL-B (36-427) and C-CBL (46-435) were captured on a streptavidin (SA) coated sensor chip
T1 sequence (Q13191 36-427): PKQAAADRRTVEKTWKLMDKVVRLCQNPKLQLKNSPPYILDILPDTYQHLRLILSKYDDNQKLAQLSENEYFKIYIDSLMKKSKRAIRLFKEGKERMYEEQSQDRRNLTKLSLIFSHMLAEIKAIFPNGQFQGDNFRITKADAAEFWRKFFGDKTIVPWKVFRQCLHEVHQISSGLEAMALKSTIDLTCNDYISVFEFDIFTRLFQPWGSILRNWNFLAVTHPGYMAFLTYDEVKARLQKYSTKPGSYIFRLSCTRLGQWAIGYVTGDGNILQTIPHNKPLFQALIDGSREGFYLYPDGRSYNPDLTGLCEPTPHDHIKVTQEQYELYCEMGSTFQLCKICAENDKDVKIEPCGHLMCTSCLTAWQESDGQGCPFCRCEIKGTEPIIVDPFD
Outline: (§1)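 Biotinylated WT CBL-B (36-427) or C-CBL (46-435) captured on streptavidin chip (~5000–6000 RU); binding at 10° C in HEPES buffer pH 7.2 with 2% DMSO. Multi-cycle: 2-fold, 10-point series from 10 or 100 μM, 90 s association. Single-cycle: 3-fold, 6-point, 0.001–1 μM, 120 s association, >5400 s dissociation.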

[2] = molecular target: T2, C-CBL (46-435) (Homo sapiens, UniProt P22681); assay: Surface Plasmon Resonance (SPR) assay, binding affinity and kinetics, C-CBL; details: SPR at 10° C., biotinylated C-CBL (46-435) on streptavidin chip; geometric mean; read-out: C-CBL SPR Kd (nM) GMean
T2 construct: N-terminal biotinylated WT CBL-B (36-427) and C-CBL (46-435) were captured on a streptavidin (SA) coated sensor chip
T2 sequence (P22681 46-435): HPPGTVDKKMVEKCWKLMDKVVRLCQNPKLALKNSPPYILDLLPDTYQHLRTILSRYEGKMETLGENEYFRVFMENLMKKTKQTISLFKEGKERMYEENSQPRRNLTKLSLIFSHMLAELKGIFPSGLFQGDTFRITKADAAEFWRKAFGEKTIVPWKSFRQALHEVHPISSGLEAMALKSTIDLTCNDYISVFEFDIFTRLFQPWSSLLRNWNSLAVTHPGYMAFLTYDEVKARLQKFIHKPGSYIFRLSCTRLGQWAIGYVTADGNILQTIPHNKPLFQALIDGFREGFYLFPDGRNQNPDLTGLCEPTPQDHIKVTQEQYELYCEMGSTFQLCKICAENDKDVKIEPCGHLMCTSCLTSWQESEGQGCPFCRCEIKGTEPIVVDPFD
Outline: as §1

`Cn1cnnc1[C@@H](c1cccc(-c2n[nH]c3c(CN[C@H]4CCC(F)(F)C4)nc(C(F)(F)F)cc23)c1)C1CCC1` (single isomer, unassigned) [Example G1] gave a Kd [1] of 8 nM and a Kd [2] of 60.8 nM.

`CC(NC1CNC1)c1nc(C(F)(F)F)cc2c(-c3cccc(C4(Cc5nncn5C)COC4)c3)n[nH]c12` (single isomer, unassigned) [Example C28, N-{(1ξ)-1-[3-(3-{3-[(4-methyl-4H-1,2,4-triazol-3-yl)methyl]oxetan-3-yl}phenyl)-5-(trifluoromethyl)-1H-pyrazolo[3,4-c]pyridin-7-yl]ethyl}azetidin-3-amine] gave a Kd [1] of 17.3 nM and a Kd [2] of 125 nM.

`C[C@H](N[C@H]1CCC(F)(F)C1)c1nc(C(F)(F)F)cc2c(-c3cccc([C@H](c4nncn4C)C4CCC4)c3)n[nH]c12` [Example C8] gave a Kd [1] of 2.2 nM and a Kd [2] of 5 nM.

Compound `C[C@@H](c1nc(C(F)(F)F)cc2c(-c3cccc(C4(Cc5nncn5C)COC4)c3)n[nH]c12)N1CC[C@@H](F)C1` (single isomer, unassigned) [Example D9] has a Kd [1] of 8.3 nM and a Kd [2] of 96 nM.

`C[C@H]1CCCN(Cc2nc(C(F)(F)F)cc3c(-c4cccc(C5(Cc6nncn6C)COC5)c4)n[nH]c23)C1` [Example C30, 7-{[(3S)-3-methylpiperidin-1-yl]methyl}-3-(3-{3-[(4-methyl-4H-1,2,4-triazol-3-yl)methyl]oxetan-3-yl}phenyl)-5-(trifluoromethyl)-1H-pyrazolo[3,4-c]pyridine] gave a Kd [1] of 3 nM and a Kd [2] of 35.9 nM.

`C[C@@H](N[C@@H]1CCOC1)c1nc(C(F)(F)F)cc2c(-c3cccc([C@H](c4nncn4C)C4CCC4)c3)n[nH]c12` (single isomer, unassigned) [Example D3] gave a Kd [1] of 4 nM and a Kd [2] of 124 nM.

`C[C@H](NC1CCC1)c1nc(C(F)(F)F)cc2c(-c3cccc(C4(Cc5nncn5C)COC4)c3)n[nH]c12` [Example F1, N-{(1S)-1-[3-(3-{3-[(4-methyl-4H-1,2,4-triazol-3-yl)methyl]oxetan-3-yl}phenyl)-5-(trifluoromethyl)-1H-pyrazolo[3,4-c]pyridin-7-yl]ethyl}cyclobutanamine] showed a Kd [1] of 0.7 nM and a Kd [2] of 11.2 nM.

For `C[C@@H](N[C@H]1C[C@H](O)C1)c1nc(C(F)(F)F)cc2c(-c3cccc([C@H](c4nncn4C)C4CCC4)c3)n[nH]c12` (single isomer, unassigned) [Example C92], the Kd [1] was 2.7 nM and the Kd [2] was 39.5 nM.

`Cn1cnnc1[C@@H](c1cccc(-c2n[nH]c3c(CN[C@H]4CCOC4)nc(C(F)(F)F)cc23)c1)C1CCC1` [Example D1, (3S)—N-{[3-{3-[(R)-cyclobutyl(4-methyl-4H-1,2,4-triazol-3-yl)methyl]phenyl}-5-(trifluoromethyl)-1H-pyrazolo[3,4-c]pyridin-7-yl]methyl}oxolan-3-amine] gave a Kd [1] of 3.7 nM and a Kd [2] of 208 nM.

With `Cn1cnnc1CC1(c2cccc(-c3n[nH]c4cnc(C(F)(F)F)cc34)c2)COC1` [Example B1, 3-(3-(3-((4-methyl-4H-1,2,4-triazol-3-yl)methyl)oxetan-3-yl)phenyl)-5-(trifluoromethyl)-1H-pyrazolo[3,4-c]pyridine] the Kd [1] was 49.5 nM and the Kd [2] was 450 nM.

`CC(c1nc(C(F)(F)F)cc2c(-c3cccc(C4(Cc5nncn5C)COC4)c3)n[nH]c12)N1CCOCC1` (single isomer, unassigned) [Example C23, 3-(3-{3-[(4-methyl-4H-1,2,4-triazol-3-yl)methyl]oxetan-3-yl}phenyl)-7-[(1ξ)-1-(morpholin-4-yl)ethyl]-5-(trifluoromethyl)-1H-pyrazolo[3,4-c]pyridine] showed a Kd [1] of 5.1 nM and a Kd [2] of 29.4 nM.

`C[C@@H]1CCCN(Cc2nc(C(F)(F)F)cc3c(-c4cccc(C5(Cc6nncn6C)COC5)c4)n[nH]c23)C1` [Example C29, 7-{[(3R)-3-methylpiperidin-1-yl]methyl}-3-(3-{3-[(4-methyl-4H-1,2,4-triazol-3-yl)methyl]oxetan-3-yl}phenyl)-5-(trifluoromethyl)-1H-pyrazolo[3,4-c]pyridine] was tested, and the Kd [1] was 3.8 nM and the Kd [2] was 195 nM.

In the case of `C[C@H](c1nc(C(F)(F)F)cc2c(-c3cccc(C4(Cc5nncn5C)COC4)c3)n[nH]c12)N1CCC(F)(F)C1` (single isomer, unassigned) [Example D6], the Kd [1] is reported as 1.8 nM and the Kd [2] is reported as 31 nM.

For `C[C@@H](N[C@@H]1CCC[C@@H]1O)c1nc(C(F)(F)F)cc2c(-c3cccc([C@H](c4nncn4C)C4CCC4)c3)n[nH]c12` (single isomer, unassigned) [Example D16], the Kd [1] was 3.6 nM and the Kd [2] was 43.1 nM.

For `C[C@H](c1nc(C(F)(F)F)cc2c(-c3cccc(C4(Cc5nncn5C)COC4)c3)n[nH]c12)N1CC[C@@H](F)C1` (single isomer, unassigned) [Example D10], the Kd [1] was 2.8 nM and the Kd [2] was 42 nM.

In the case of `CC(c1nc(C(F)(F)F)cc2c(-c3cccc(C4(Cc5nncn5C)COC4)c3)n[nH]c12)N1C[C@@H](F)[C@H](F)C1` (single isomer, unassigned) [Example C25], the Kd [1] is reported as 1.8 nM and the Kd [2] is reported as 31.8 nM.

With `CC(c1nc(C(F)(F)F)cc2c(-c3cccc(C4(Cc5nncn5C)COC4)c3)n[nH]c12)N1CCC[C@H](C)C1` (single isomer, unassigned) [Example C19] the Kd [1] was 2.4 nM and the Kd [2] was 51.3 nM.

Work on `C[C@@H](NC1CCCC1)c1nc(C(F)(F)F)cc2c(-c3cccc([C@H](c4nncn4C)C4CCC4)c3)n[nH]c12` (single isomer, unassigned) [Example C11] yielded a Kd [1] of 0.9 nM and a Kd [2] of 6.1 nM.

In the case of `C[C@@H](N[C@H]1C[C@@H](F)C1)c1nc(C(F)(F)F)cc2c(-c3cccc([C@H](c4nncn4C)C4CCC4)c3)n[nH]c12` (single isomer, unassigned) [Example C96], the Kd [1] is reported as 3.3 nM and the Kd [2] is reported as 91.2 nM.

For `C[C@H]1CCCN(Cc2nc(C(F)(F)F)cc3c(-c4cccc([C@H](c5nncn5C)C5CCC5)c4)n[nH]c23)C1` [Example C7, 3-{3-[(R)-cyclobutyl(4-methyl-4H-1,2,4-triazol-3-yl)methyl]phenyl}-7-{[(3S)-3-methylpiperidin-1-yl]methyl}-5-(trifluoromethyl)-1H-pyrazolo[3,4-c]pyridine], the Kd [1] was 2.7 nM and the Kd [2] was 47.7 nM.

Compound `CC1CN(Cc2nc(C(F)(F)F)cc3c(-c4cccc(C5(Cc6nncn6C)COC5)c4)n[nH]c23)CCC1(F)F` (single isomer, unassigned) [Example C32, 7-{[(3ξ)-4,4-difluoro-3-methylpiperidin-1-yl]methyl}-3-(3-{3-[(4-methyl-4H-1,2,4-triazol-3-yl)methyl]oxetan-3-yl}phenyl)-5-(trifluoromethyl)-1H-pyrazolo[3,4-c]pyridine] has a Kd [1] of 0.8 nM and a Kd [2] of 42.6 nM.

For `C[C@H]1CN([C@@H](C)c2nc(C(F)(F)F)cc3c(-c4cccc(C5(Cc6nncn6C)COC5)c4)n[nH]c23)CCO1` (single isomer, unassigned) [Example D11], the Kd [1] was 4.2 nM and the Kd [2] was 47.9 nM.

`C[C@@H](N[C@H]1CCOC1)c1nc(C(F)(F)F)cc2c(-c3cccc([C@H](c4nncn4C)C4CCC4)c3)n[nH]c12` (single isomer, unassigned) [Example C3] gave a Kd [1] of 5.6 nM and a Kd [2] of 80.7 nM.

`C[C@H](N[C@H]1C[C@@H](F)C1)c1nc(C(F)(F)F)cc2c(-c3cccc([C@H](c4nncn4C)C4CCC4)c3)n[nH]c12` (single isomer, unassigned) [Example C95] showed a Kd [1] of 2.3 nM and a Kd [2] of 72.5 nM.

For `C[C@H](N[C@@H]1CCC(F)(F)C1)c1nc(C(F)(F)F)cc2c(-c3cccc(C4(Cc5nncn5C)COC4)c3)n[nH]c12` (single isomer, unassigned) [Example C17], the Kd [1] was 1.8 nM and the Kd [2] was 28.3 nM.

`C[C@H](NC1CC(F)(F)C1)c1nc(C(F)(F)F)cc2c(-c3cccc([C@H](c4nncn4C)C4CCC4)c3)n[nH]c12` (single isomer, unassigned) [Example D90] showed a Kd [1] of 6.5 nM and a Kd [2] of 77.4 nM.

`CC(c1nc(C(F)(F)F)cc2c(-c3cccc(C4(Cc5nncn5C)COC4)c3)n[nH]c12)N1CCC[C@H](C)C1` (single isomer, unassigned) [Example C20] showed a Kd [1] of 1.2 nM and a Kd [2] of 11.3 nM.

In the case of `Cn1cnnc1[C@@H](c1cccc(-c2n[nH]c3c(CNC4CCCC4)nc(C(F)(F)F)cc23)c1)C1CCC1` [Example D4], the Kd [1] is reported as 2.8 nM and the Kd [2] is reported as 106 nM.

With `C[C@H]1CN(Cc2nc(C(F)(F)F)cc3c(-c4cccc([C@H](c5nncn5C)C5CCC5)c4)n[nH]c23)CCO1` [Example C6, 3-{3-[(R)-cyclobutyl(4-methyl-4H-1,2,4-triazol-3-yl)methyl]phenyl}-7-{[(2S)-2-methylmorpholin-4-yl]methyl}-5-(trifluoromethyl)-1H-pyrazolo[3,4-c]pyridine] the Kd [1] was 4.4 nM and the Kd [2] was 102 nM.

Compound `C[C@@H](N[C@@H]1CCC(F)(F)C1)c1nc(C(F)(F)F)cc2c(-c3cccc(C4(Cc5nncn5C)COC4)c3)n[nH]c12` (single isomer, unassigned) [Example C18] has a Kd [1] of 0.7 nM and a Kd [2] of 6.2 nM.

`C[C@H](c1nc(C(F)(F)F)cc2c(-c3cccc(C4(Cc5nncn5C)COC4)c3)n[nH]c12)N1C[C@@H](F)[C@H](F)C1` (single isomer, unassigned) [Example C26] was tested, and the Kd [1] was 13.2 nM and the Kd [2] was 183 nM.
